Reference: patent publication US6610299B1, “Glycosyl-etoposide prodrugs, a process for preparation thereof and the use thereof in combination with functionalized tumor-specific enzyme conjugates” (Aventis Pharma Deutschland GmbH, priority 1989, dated 2003)

How the values were obtained:
[1] = biological target: T1, 431/26 hum VH huβGlc 1H fusion protein (Homo sapiens, UniProt P01860+P08236); assay: prodrug cleavage by β-glucuronidase (fusion protein), HPLC; format: biochemical
T1 construct: made in house; host or cells: BHK cells
T1 sequence (P01860+P08236 fused): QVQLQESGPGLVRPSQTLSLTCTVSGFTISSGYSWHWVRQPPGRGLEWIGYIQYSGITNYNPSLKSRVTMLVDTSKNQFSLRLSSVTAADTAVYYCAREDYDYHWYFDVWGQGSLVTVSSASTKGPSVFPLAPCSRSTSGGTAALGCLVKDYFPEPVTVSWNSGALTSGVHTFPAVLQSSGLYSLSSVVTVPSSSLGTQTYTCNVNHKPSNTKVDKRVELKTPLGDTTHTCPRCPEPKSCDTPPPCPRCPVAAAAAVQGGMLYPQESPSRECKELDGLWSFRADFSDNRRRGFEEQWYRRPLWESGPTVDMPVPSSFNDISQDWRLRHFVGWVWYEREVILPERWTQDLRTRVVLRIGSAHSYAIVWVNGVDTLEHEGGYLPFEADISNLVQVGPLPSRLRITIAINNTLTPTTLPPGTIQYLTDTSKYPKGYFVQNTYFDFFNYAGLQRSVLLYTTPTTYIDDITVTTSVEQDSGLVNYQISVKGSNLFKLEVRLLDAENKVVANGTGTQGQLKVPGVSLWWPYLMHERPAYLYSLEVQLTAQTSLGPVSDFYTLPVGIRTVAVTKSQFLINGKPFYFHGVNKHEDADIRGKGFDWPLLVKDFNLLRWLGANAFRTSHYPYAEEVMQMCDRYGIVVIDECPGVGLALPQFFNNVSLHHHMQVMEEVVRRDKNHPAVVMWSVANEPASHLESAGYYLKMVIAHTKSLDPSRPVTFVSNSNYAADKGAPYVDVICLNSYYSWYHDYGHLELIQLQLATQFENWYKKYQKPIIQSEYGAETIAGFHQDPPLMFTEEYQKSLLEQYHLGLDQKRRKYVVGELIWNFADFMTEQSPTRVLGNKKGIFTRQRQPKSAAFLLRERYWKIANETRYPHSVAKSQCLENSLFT
Experimental: (§1) It was shown in Example 17 that the β-glucuronidase portion of the fusion protein is able, like the native human enzyme, to cleave the β-glucuronide of 4-methylumbelliferol. In the investigations which are described hereinafter, the substrate used for the enzymatic cleavage was a β-glucuronide, linked via a spacer group, of the cytostatic daunomycin. The specific procedure for these investigations was as follows:
(§2) 4 mg of the compound N-(4-hydroxy-3-nitrobenzyloxy-carbonyl)daunorubicin β-D-glucuronide (prodrug), which is described in French Patent Application (No. d'Enregistrement National: 9105326) were dissolved in 1 ml of 20 mM phosphate buffer, pH 7.2. 35 μl of the fusion protein (Example 21) or of human β-glucuronidase (total concentration in each case 6.5 U/ml; 1 U=cleavage of 1 μmol of 4-methyl-umbelliferol/min at 37° C.) were pipetted into 5 μl portions of this substrate solution and incubated in the dark at 37° C. Samples (5 μl) of the incubation mixture were removed after various times and immediately analyzed by high pressure liquid chromatography under the following conditions:
(§3) Nucleosil 100 RP 18, 5 μm particle diameter, 125×4.6 mm
(§4) Gradient of solution A (100% acetonitrile) and solution B (20 mM phosphate buffer pH.3.0)
(§5) Detection: fluorescence, excitation 495 nm, emission […]
(§6) Data analysis: Beckman System Gold Software

human β-glucuronidase = biological target: T2, human β-glucuronidase (Homo sapiens, UniProt P08236); assay: prodrug cleavage by β-glucuronidase (human, recombinant), HPLC; format: biochemical
T2 sequence (P08236 23-651): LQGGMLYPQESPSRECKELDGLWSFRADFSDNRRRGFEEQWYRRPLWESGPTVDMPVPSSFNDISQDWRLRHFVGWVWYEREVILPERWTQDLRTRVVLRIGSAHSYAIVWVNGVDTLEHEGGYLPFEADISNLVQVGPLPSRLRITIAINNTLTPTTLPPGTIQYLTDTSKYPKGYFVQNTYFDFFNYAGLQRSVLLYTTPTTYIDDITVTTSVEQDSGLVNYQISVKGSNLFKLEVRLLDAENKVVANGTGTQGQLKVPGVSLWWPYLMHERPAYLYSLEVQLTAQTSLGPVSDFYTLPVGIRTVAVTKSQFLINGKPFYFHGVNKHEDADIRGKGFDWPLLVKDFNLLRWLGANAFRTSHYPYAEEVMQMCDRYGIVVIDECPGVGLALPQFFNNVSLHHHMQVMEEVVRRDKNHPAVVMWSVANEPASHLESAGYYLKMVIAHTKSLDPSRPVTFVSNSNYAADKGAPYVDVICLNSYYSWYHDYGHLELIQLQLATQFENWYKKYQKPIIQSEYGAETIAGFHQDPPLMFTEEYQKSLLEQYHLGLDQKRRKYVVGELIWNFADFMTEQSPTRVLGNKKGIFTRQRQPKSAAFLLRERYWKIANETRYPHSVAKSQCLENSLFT
Experimental: as §1, §2, §3, §4, §5, §6

alpha-glucosidase = details: in vitro, enzyme alpha-glucosidase
[2] = system: tumor-specific antibody-glucosidase conjugate; details: in vitro

## COc1cccc2c1C(=O)c1c(O)c3c(c(O)c1C2=O)C[C@@](O)(C(C)=O)C[C@@H]3O[C@H]1C[C@H](NC(=O)OCc2ccc(O[C@@H]3O[C@H](C(=O)O)[C@@H](O)[C@H](O)[C@H]3O)c([N+](=O)[O-])c2)[C@H](O)[C@H](C)O1 [Prodrug, N-(4-hydroxy-3-nitrobenzyloxy-carbonyl)daunorubicin β-D-glucuronide]
[1]; t 0 min
  DNM area % (liberated daunomycin): 1.1 area %
  Prodrug area %: 98.9 area %
[1]; t 50 min
  DNM area % (liberated daunomycin): 18.9 area %
  Prodrug area %: 81.1 area %
[1]; t 135 min
  DNM area % (liberated daunomycin): 48.3 area %
  Prodrug area %: 51.7 area %
[1]; t 190 min
  DNM area % (liberated daunomycin): 67.0 area %
  Prodrug area %: 33.0 area %
[1]; t 247 min
  DNM area % (liberated daunomycin): 78.0 area %
  Prodrug area %: 22.0 area %
[1]; t 317 min
  DNM area % (liberated daunomycin): 87.6 area %
  Prodrug area %: 12.4 area %
Human β-glucuronidase; t 0 min
  DNM area % (liberated daunomycin): 0.8 area %
  Prodrug area %: 99.2 area %
Human β-glucuronidase; t 57 min
  DNM area % (liberated daunomycin): 64.0 area %
  Prodrug area %: 36.0 area %
Human β-glucuronidase; t 130 min
  DNM area % (liberated daunomycin): 89.7 area %
  Prodrug area %: 10.3 area %
Human β-glucuronidase; t 227 min
  DNM area % (liberated daunomycin): 90.7 area %
  Prodrug area %: 9.3 area %

## 4′-O-alpha-D-glucopyranosyl-etoposide
alpha-glucosidase
  cleavage into etoposide and D-glucose: can be cleaved in vitro into etoposide and D-glucose
[2]
  cleavage into etoposide and D-glucose: can be cleaved in vitro into etoposide and D-glucose
